Test results reported in patent US12091425B2 (AMGEN INC., priority 2016, dated 2024).

Assays:
[1] = target: T1, Mcl-1/Bim interaction, recombinant human Mcl-1 (171-327) (Homo sapiens, UniProt Q07820); assay: Cell free Mcl-1: Bim Affinity Assay (Mcl-1 HTRF); type: binding
T1 construct: made in house
Outline: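 Compounds were mixed with the protein and a biotinylated Bim peptide spanning human residues 51-76. Plates were left overnight, then TR-FRET signal was measured. A four-parameter sigmoidal model applied to duplicate competition data gave IC50.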

[2] = system: OPM-2 human multiple myeloma cell line; assay: Cell Viability Assay (OPM-2 10 FBS); type: cell-based; conditions: OPM-2 cells, CellTiter-Glo
Outline: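 IC50 from 4-parameter logistic fit of CellTiter-Glo luminescence. 3000 cells/well, 10% FBS medium, serial compound dilutions, 16 h, 37 °C/5% CO2; read 25 min post-reagent.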

[3] = TR-FRET, 0.1 nM Mcl-1 (171-327), 0.05 nM biotin-Bim (51-76)
[4] = Homo sapiens, OPM-2, 16 h, 16 h
[5] = Homo sapiens, OPM-2, 16 h, 16 h incubation
[6] = cell free Mcl-1:Bim TR-FRET, recombinant human Mcl-1 (171-327)

T1 sequence (Q07820 171-327): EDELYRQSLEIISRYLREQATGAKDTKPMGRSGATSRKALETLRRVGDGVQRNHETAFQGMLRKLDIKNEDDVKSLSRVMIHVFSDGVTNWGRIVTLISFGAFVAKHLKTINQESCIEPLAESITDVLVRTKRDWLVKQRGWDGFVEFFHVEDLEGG

| IC50 [1, 3] | IC50 [2, 4] | IC50 [2, 5] | IC50 [1, 6] | Structure (SMILES) | IC50 ([2]; 16 h) |
| --- | --- | --- | --- | --- | --- |
| 0.685 nM | 312 nM |  |  | C[C@@H]1[C@@H](C)C/C=C/[C@H](OCCN(C)c2ccccn2)[C@@H]2CC[C@H]2CN2C[C@@]3(CCCc4cc(Cl)ccc43)COc3ccc(cc32)C(=O)NS1(=O)=O [Example 13, (1S,3′R,6′R,7′S,8′E,11′S,12′R)-6-chloro-11′,12′-dimethyl-7′-(2-(methyl(2-pyridinyl)amino)ethoxy)-3,4-dihydro-2H,15′H-spiro[naphthalene-1,22′-[20]oxa[13]thia[1,14]diazatetracyclo[14.7.2.0˜3,6˜.0˜19,24˜]pentacosa[8,16,18,24]tetraen]-15′-one 13′,13′-dioxide] |  |
| 17.8 nM |  | 15200 nM |  | CO[C@@H]1/C=C/[C@@H](C)[C@@H](C)CS(=O)(=O)NC(=O)c2ccc3c(c2)N(C[C@@H]2CC[C@H]21)C[C@@]1(CCCc2cc(Cl)ccc21)CO3 (single isomer, unassigned) [Example 1066] |  |
| 0.785 nM |  | 2520 nM |  | C[C@H]1[C@H](C)CC[C@H](O)[C@@H]2CC[C@H]2CN2C[C@@]3(CCCc4cc(Cl)ccc43)COc3ccc(cc32)C(=O)NS(=O)(=O)[C@@H]1C [Example 1046, (1S,3′R,6′R,7′S,10′R,11′S,12′R)-6-chloro-7′-hydroxy-10′,11′,12′-trimethyl-3,4-dihydro-2H,15′H-spiro[naphthalene-1,22′-[20]oxa[13]thia[1,14]diazatetracyclo[14.7.2.0^3,6.0^19,24]pentacosa [16,18,24]trien]-15′-one 13′,13′-dioxide] |  |
|  | 2760 nM |  | 2.18 nM | O=C1NS(=O)(=O)CC/C=C/C[C@H](O)[C@@H]2CC[C@H]2CN2C[C@@]3(CCCc4cc(Cl)ccc43)COc3ccc1cc32 (single isomer, unassigned) [Example 846] |  |
|  | 438 nM |  | 0.667 nM | Cc1nc(CO[C@H]2/C=C/CC[C@@H](C)S(=O)(=O)NC(=O)c3ccc4c(c3)N(C[C@@H]3CC[C@H]32)C[C@@]2(CCCc3cc(Cl)ccc32)CO4)no1 [Example 603, (1S,3′R,6′R,7′S,8′E,12′R)-6-chloro-12′-methyl-7′-((5-methyl-1,2,4-oxadiazol-3-yl)methoxy)-3,4-dihydro-2H,15′H-spiro[naphthalene-1,22′-[20]oxa[13]thia[1,14]diazatetracyclo[14.7.2.0^3,6.0^19,24]pentacosa [8,16,18,24]tetraen]-15′-one 13′,13′-dioxide] |  |
| 0.103 nM |  | 2340 nM |  | CC[C@@H]1CC/C=C/[C@H](OCC(=O)O)[C@@H]2CC[C@H]2CN2C[C@@]3(CCCc4cc(Cl)ccc43)COc3ccc(cc32)C(=O)NS1(=O)=O [Example 992, (((1S,3′R,6′R,7′S,8′E,12′R)-6-chloro-12′-ethyl-13′,13′-dioxido-15′-oxo-3,4-dihydro-2H-spiro[naphthalene-1,22′-[20]oxa[13]thia[1,14]diazatetracyclo[14.7.2.0^3,6.0^19,24]pentacosa [8,16,18,24]tetraen]-7′-yl)oxy)acetic Acid] |  |
| 0.37 nM | 276 nM |  |  | COCCOCCN1CC/C=C/[C@H](O)[C@@H]2CC[C@H]2CN2C[C@@]3(CCCc4cc(Cl)ccc43)COc3ccc(cc32)C(=O)NS1(=O)=O [Example 22, (1S,3′R,6′R,7′S,8′E)-6-chloro-7′-hydroxy-12′-(2-(2-methoxyethoxy)ethyl)-3,4-dihydro-2H,15′H-spiro[naphthalene-1,22′-[20]oxa[13]thia[1,12,14]triazatetracyclo[14.7.2.0^3,6.0^19,24]pentacosa[8,16,18,24]tetraen]-15′-one 13,13′-dioxide] |  |
| 3.56 nM |  |  |  | C[C@@H]1CC(=O)NC[C@@H]2CC[C@H]2CN2C[C@@]3(CCCc4cc(Cl)ccc43)COc3ccc(cc32)C(=O)NS(=O)(=O)[C@@H]1C (single isomer, unassigned) [Example 151] | 9170 nM |
| 1.59 nM | 1530 nM |  |  | COCCO[C@@H]1/C=C/CCCS(=O)(=O)NC(=O)c2ccc3c(c2)N(C[C@@H]2CC[C@H]21)C[C@@]1(CCCc2cc(Cl)ccc21)CO3 [Example 210, (1S,3′R,6′R,7′R,8′E)-6-chloro-7′-(2-methoxyethoxy)-3,4-dihydro-2H,15′H-spiro[naphthalene-1,22′-[20]oxa[13]thia[1,14]diazatetracyclo[14.7.2.0^3,6.0^19,24]pentacosa [8,16,18,24]tetraen]-15′-one 13′,13′-dioxide] |  |
|  | 170 nM |  | 0.543 nM | CC[C@@H]1[C@@H](C)C/C=C/[C@H](OCCOC)[C@@H]2CC[C@H]2CN2C[C@@]3(CCCc4cc(Cl)ccc43)COc3ccc(cc32)C(=O)NS1(=O)=O [Example 740, (1S,3′R,6′R,7′S,8′E,11′S,12′R)-6-chloro-12′-ethyl-7′-(2-methoxyethoxy)-11′-methyl-3,4-dihydro-2H,15′H-spiro[naphthalene-1,22′-[20]oxa[13]thia[1,14]diazatetracyclo[14.7.2.0^3,6.0^19,24]pentacosa [8,16,18,24]tetraen]-15′-one-13′, 13′-dioxide] |  |
| 0.448 nM |  | 1220 nM |  | CC[C@@H]1CC/C=C/[C@H](OCC(=O)NCCN2CCOCC2)[C@@H]2CC[C@H]2CN2C[C@@]3(CCCc4cc(Cl)ccc43)COc3ccc(cc32)C(=O)NS1(=O)=O [Example 1002, 2-(((1S,3′R,6′R,7′S,8′E,12′R)-6-chloro-12′-ethyl-13′,13′-dioxido-15′-oxo-3,4-dihydro-2H-spiro[naphthalene-1,22′-[20]oxa[13]thia[1,14]diazatetracyclo[14.7.2.0^3,6.0^19,24]pentacosa [8,16,18,24]tetraen]-7′-yl)oxy)-N-(2-(4-morpholinyl)ethyl)acetamide] |  |
| 2.73 nM | 18600 nM |  |  | O=C1NS(=O)(=O)[C@H]2C[C@H](/C=C/[C@H](O)[C@@H]3CC[C@H]3CN3C[C@@]4(CCCc5cc(Cl)ccc54)COc4ccc1cc43)C2 [Example 102, (1S,3′R,6′R,7′S,8′E,10′R,12′S)-6-chloro-7′-hydroxy-3,4-dihydro-2H,15′H-spiro[naphthalene-1,22′-[20]oxa[13]thia[1,14]diazapentacyclo[14.7.2.1^10,12.0^3,6.0^19,24]hexacosa[8,16,18,24]tetraen]-15′-one 13′,13′-dioxide] |  |
| 0.422 nM | 970 nM |  |  | COCCN1[C@@H](C)C/C=C/[C@H](OC)[C@@H]2CC[C@H]2CN2C[C@@]3(CCCc4cc(Cl)ccc43)COc3ccc(cc32)C(=O)NS1(=O)=O [Example 27, (1S,3′R,6′R,7′S,8′E,11′S)-6-chloro-7′-methoxy-12′-(2-methoxyethyl)-11′-methyl-3,4-dihydro-2H,15′H-spiro[naphthalene-1,22′-[20]oxa[13]thia[1,12,14]triazatetracyclo[14.7.2.0^3,6.0^19,24]pentacosa[8,16,18,24]tetraen]-15′-one 13,13′-dioxide] |  |
| 0.349 nM |  | 754 nM |  | CC[C@@H]1CC/C=C/[C@H](OCc2nnc(C)o2)[C@@H]2CC[C@H]2CN2C[C@@]3(CCCc4cc(Cl)ccc43)COc3ccc(cc32)C(=O)NS1(=O)=O [Example 966, (1S,3′R,6′R,7′S,8′E,12′R)-6-chloro-12′-ethyl-7′-((5-methyl-1,3,4-oxadiazol-2-yl)methoxy)-3,4-dihydro-2H,15′H-spiro[naphthalene-1,22′-[20]oxa[13]thia[1,14]diazatetracyclo[14.7.2.0^3,6.0^19,24]pentacosa [8,16,18,24]tetraen]-15′-one 13′,13′-dioxide] |  |
|  | 759 nM |  | 1.02 nM | CC(C)OC(=O)C[C@@H]1[C@@H](C)/C=C\C[C@H](O)[C@@H]2CC[C@H]2CN2C[C@@]3(CCCc4cc(Cl)ccc43)COc3ccc(cc32)C(=O)NS1(=O)=O [Example 569] |  |
| 0.377 nM |  | 298 nM |  | CC[C@@H]1CC/C=C/[C@H](OCCC(=O)N(C)C)[C@@H]2CC[C@H]2CN2C[C@@]3(CCCc4cc(Cl)ccc43)COc3ccc(cc32)C(=O)NS1(=O)=O [Example 1010, 3-(((1S,3′R,6′R,7′S,8′E,12′R)-6-chloro-12′-ethyl-13′,13′-dioxido-15′-oxo-3,4-dihydro-2H-spiro[naphthalene-1,22′-[20]oxa[13]thia[1,14]diazatetracyclo[14.7.2.0^3,6.0^19,24]pentacosa [8,16,18,24]tetraen]-7′-yl)oxy)-N,N-dimethylpropanamide] |  |
|  | 72.5 nM |  | 0.27 nM | C[C@@H]1[C@@H](C)C/C=C/[C@H](OCCO)[C@@H]2CC[C@H]2CN2C[C@@]3(CCCc4cc(Cl)ccc43)COc3ccc(cc32)C(=O)NS1(=O)=O [Example 516, (1S,3′R,6′R,7′S,8′E,11′S,12′R)-6-chloro-7′-(2-hydroxyethoxy)-11′,12′-dimethyl-3,4-dihydro-2H,15′H-spiro[naphthalene-1,22′-[20]oxa[13]thia[1,14]diazatetracyclo[14.7.2.0^3,6.0^19,24]pentacosa[8,16,18,24]tetraen]-15′-one 13′,13′-dioxide] |  |

| Structure (SMILES) | IC50 [1, 3] | IC50 [2, 4] | IC50 [2, 5] | IC50 [1, 6] | IC50 ([2]; 16 h) |
| --- | --- | --- | --- | --- | --- |
| O=C1NS(=O)(=O)CCC/C(Br)=C\[C@@H](O)[C@@H]2CC[C@H]2CN2C[C@@]3(CCCc4cc(Cl)ccc43)COc3ccc1cc32 (single isomer, unassigned) [Example 236] | 6.42 nM |  |  |  | 13700 nM |
| CO[C@H](C)C[C@@H]1[C@@H](C)C/C=C/[C@H](O)[C@@H]2CC[C@H]2CN2C[C@@]3(CCCc4cc(Cl)ccc43)COc3ccc(cc32)C(=O)NS1(=O)=O (single isomer, unassigned) [Example 540] |  |  |  | 0.236 nM | 94.1 nM |
| Cn1cnc(CO[C@H]2/C=C/C[C@@H]3CCC[C@H]3S(=O)(=O)NC(=O)c3ccc4c(c3)N(C[C@@H]3CC[C@H]32)C[C@@]2(CCCc3cc(Cl)ccc32)CO4)n1 (single isomer, unassigned) [Example 328] | 0.44 nM |  |  |  | 428 nM |
| COC(=O)CC1C(C)CC=CC(OC)C2CCC2CN2CC3(CCCc4cc(Cl)ccc43)COc3ccc(cc32)C(=O)NS1(=O)=O (single isomer, unassigned) [Example 576] |  |  |  | 0.382 nM | 220 nM |
